# Measurements as given in patent US8895504B2, “Amylin derivatives” (priority 2008, dated 2014).
# *1 amine or outer side, *2 acyl side, *3 side chain or, on linkers, in order; H or OH if unused. Where a SMILES comes first, the peptide text is derived from it. Bridges are numbered along the chain shown (N, C = ends). The star is where a group is joined. C20 diacid = O=C(O)CCCCCCCCCCCCCCCCCCC(=O)*; C18 diacid = O=C(O)CCCCCCCCCCCCCCCCC(=O)*; γGlu = O=C(O)[C@H](CCC(=O)[*:2])N[*:1]
# Target: T1, Amylin 3(a) receptor (human calcitonin receptor (CTa) and RAMP-3) (Homo sapiens, UniProt O60896+P30988)
# T1 construct: expressed in transfected cells; host or cells: BHK570 cells, stably transfected with a CRE-luciferase reporter
# T1 sequence (O60896 24-148): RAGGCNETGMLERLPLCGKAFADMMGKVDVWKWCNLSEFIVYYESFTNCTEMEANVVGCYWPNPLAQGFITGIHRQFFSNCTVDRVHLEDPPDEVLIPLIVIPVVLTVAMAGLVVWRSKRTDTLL
# T1 sequence (P30988 25-474): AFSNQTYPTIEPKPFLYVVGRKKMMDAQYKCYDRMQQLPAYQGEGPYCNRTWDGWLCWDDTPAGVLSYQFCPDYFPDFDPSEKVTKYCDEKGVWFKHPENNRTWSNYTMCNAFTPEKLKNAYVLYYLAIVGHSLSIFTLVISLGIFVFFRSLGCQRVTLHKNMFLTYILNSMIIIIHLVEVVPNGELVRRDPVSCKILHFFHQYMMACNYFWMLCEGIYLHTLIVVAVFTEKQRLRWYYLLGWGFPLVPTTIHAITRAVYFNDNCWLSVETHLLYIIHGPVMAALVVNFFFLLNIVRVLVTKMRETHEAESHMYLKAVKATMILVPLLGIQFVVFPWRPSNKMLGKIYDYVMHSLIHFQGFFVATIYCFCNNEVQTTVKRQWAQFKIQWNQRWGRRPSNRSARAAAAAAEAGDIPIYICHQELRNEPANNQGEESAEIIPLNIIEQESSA
# Assay: Luciferase assay (III), BHK Amylin 3(a)//CRE-luc cells
# Type: cell-based
# Settings: BHK cells with Amylin 3(a) receptor and CRE luciferase reporter, 4 hours incubation; read-out: Potency Luciferase
# How it was run: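 BHK570 cells stably expressing CTa, RAMP-3 and a CRE-luciferase reporter, seeded at about 20,000 cells/well and grown overnight. Cells were exposed to standard or sample for 4 h at 37° C in phenol red-free DMEM with 10% FBS and 10 mM Hepes, pH 7,4. Luminescence was read after 30 min LucLite at room temperature.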
row,SMILES,EC50 [pM]
1,"CC[C@H](C)[C@H](NC(=O)[C@@H]1CCCN1C(=O)CNC(=O)[C@H](Cc1ccccc1)NC(=O)[C@H](CC(N)=O)NC(=O)[C@H](CC(N)=O)NC(=O)[C@H](CO)NC(=O)[C@H](CO)NC(=O)[C@H](Cc1c[nH]cn1)NC(=O)[C@H](Cc1c[nH]cn1)NC(=O)[C@H](CC(C)C)NC(=O)[C@H](Cc1ccccc1)NC(=O)[C@H](CC(N)=O)NC(=O)[C@H](C)NC(=O)[C@H](CC(C)C)NC(=O)[C@H](CCCNC(=N)N)NC(=O)[C@H](CCC(N)=O)NC(=O)[C@@H](NC(=O)[C@H](C)NC(=O)[C@@H]1CSSC[C@H](NC(=O)CC[C@H](NC(=O)CCCCCCCCCCCCCCCCCCC(=O)O)C(=O)O)C(=O)N[C@@H](CC(N)=O)C(=O)N[C@@H]([C@@H](C)O)C(=O)N[C@@H](C)C(=O)N[C@@H]([C@@H](C)O)C(=O)N1)[C@@H](C)O)C(=O)N[C@@H](CC(C)C)C(=O)N1CCC[C@H]1C(=O)N1CCC[C@H]1C(=O)N[C@H](C(=O)N[C@@H](CC(=O)O)C(=O)N[C@H](C(=O)NCC(=O)N[C@@H](CO)C(=O)N[C@@H](CC(N)=O)C(=O)N[C@H](C(=O)N[C@@H](Cc1ccc(O)cc1)C(N)=O)[C@@H](C)O)C(C)C)[C@@H](C)O [Example 53, N-alpha-[(S)-4-Carboxy-4-(19-carboxynonadecanoylamino)butyryl]-[His17,Asp31]-pramlintide (2-37)] ({C20 diacid-γGlu}-CNTATCATQRLANFLHHSSNNFGPILPPTDVGSNTY-NH2; disulfide 1-6)",60
2,"CC[C@H](C)[C@H](NC(=O)[C@@H]1CCCN1C(=O)CNC(=O)[C@H](Cc1ccccc1)NC(=O)[C@H](CC(N)=O)NC(=O)[C@H](CC(N)=O)NC(=O)[C@H](CO)NC(=O)[C@H](CO)NC(=O)[C@H](Cc1c[nH]cn1)NC(=O)[C@H](Cc1c[nH]cn1)NC(=O)[C@H](CC(C)C)NC(=O)[C@H](Cc1ccccc1)NC(=O)[C@H](CC(N)=O)NC(=O)[C@H](C)NC(=O)[C@H](CC(C)C)NC(=O)[C@H](CCCNC(=N)N)NC(=O)[C@H](CCC(N)=O)NC(=O)[C@@H](NC(=O)[C@H](C)NC(=O)[C@@H]1CSSC[C@H](NC(=O)[C@H](Cc2c[nH]cn2)NC(=O)[C@H](Cc2c[nH]cn2)NC(=O)[C@H](Cc2c[nH]cn2)NC(=O)CC[C@H](NC(=O)CCCCCCCCCCCCCCCCC(=O)O)C(=O)O)C(=O)N[C@@H](CC(N)=O)C(=O)N[C@@H]([C@@H](C)O)C(=O)N[C@@H](C)C(=O)N[C@@H]([C@@H](C)O)C(=O)N1)[C@@H](C)O)C(=O)N[C@@H](CC(C)C)C(=O)N1CCC[C@H]1C(=O)N1CCC[C@H]1C(=O)N[C@H](C(=O)N[C@@H](CC(N)=O)C(=O)N[C@H](C(=O)NCC(=O)N[C@@H](CO)C(=O)N[C@@H](CC(N)=O)C(=O)N[C@H](C(=O)N[C@@H](Cc1ccc(O)cc1)C(N)=O)[C@@H](C)O)C(C)C)[C@@H](C)O [Example 60, N-alpha-[(S)-4-Carboxy-4-(17-carboxyheptadecanoylamino)butyryl]-His-His-[His1,His17]-pramlintide] ({C18 diacid-γGlu}-HHHCNTATCATQRLANFLHHSSNNFGPILPPTNVGSNTY-NH2; disulfide 4-9)",50
3,"CC[C@H](C)[C@H](NC(=O)[C@@H]1CCCN1C(=O)CNC(=O)[C@H](Cc1ccccc1)NC(=O)[C@H](CC(N)=O)NC(=O)[C@H](CC(N)=O)NC(=O)[C@H](CO)NC(=O)[C@H](CO)NC(=O)[C@H](Cc1c[nH]cn1)NC(=O)[C@H](Cc1c[nH]cn1)NC(=O)[C@H](CC(C)C)NC(=O)[C@H](Cc1ccccc1)NC(=O)[C@H](CC(N)=O)NC(=O)[C@H](C)NC(=O)[C@H](CC(C)C)NC(=O)[C@H](CCCNC(=N)N)NC(=O)[C@H](CCC(N)=O)NC(=O)[C@@H](NC(=O)[C@H](C)NC(=O)[C@@H]1CSSC[C@H](NC(=O)[C@H](Cc2c[nH]cn2)NC(=O)CC[C@H](NC(=O)CCCCCCCCCCCCCCCCC(=O)O)C(=O)O)C(=O)N[C@@H](CC(N)=O)C(=O)N[C@@H]([C@@H](C)O)C(=O)N[C@@H](C)C(=O)N[C@@H]([C@@H](C)O)C(=O)N1)[C@@H](C)O)C(=O)N[C@@H](CC(C)C)C(=O)N1CCC[C@H]1C(=O)N1CCC[C@H]1C(=O)N[C@H](C(=O)N[C@@H](CC(N)=O)C(=O)N[C@H](C(=O)NCC(=O)N[C@@H](CO)C(=O)N[C@@H](CC(N)=O)C(=O)N[C@H](C(=O)N[C@@H](Cc1ccc(O)cc1)C(N)=O)[C@@H](C)O)C(C)C)[C@@H](C)O [Example 32, N-alpha-[(S)-4-Carboxy-4-(17-carboxyheptadecanoylamino)butyryl]-[His1,His17]-pramlintide] ({C18 diacid-γGlu}-HCNTATCATQRLANFLHHSSNNFGPILPPTNVGSNTY-NH2; disulfide 2-7)",80
4,"CC[C@H](C)[C@H](NC(=O)[C@@H]1CCCN1C(=O)CNC(=O)[C@H](Cc1ccccc1)NC(=O)[C@H](CC(N)=O)NC(=O)[C@H](CC(N)=O)NC(=O)[C@H](CO)NC(=O)[C@H](CO)NC(=O)[C@H](Cc1c[nH]cn1)NC(=O)[C@H](Cc1c[nH]cn1)NC(=O)[C@H](CC(C)C)NC(=O)[C@H](Cc1ccccc1)NC(=O)[C@H](CCC(=O)O)NC(=O)[C@H](C)NC(=O)[C@H](CC(C)C)NC(=O)[C@H](CCCNC(=N)N)NC(=O)[C@H](CCC(N)=O)NC(=O)[C@@H](NC(=O)[C@H](C)NC(=O)[C@@H]1CSSC[C@H](NC(=O)[C@H](CCC(=O)O)NC(=O)[C@H](CCCNC(=N)N)NC(=O)[C@H](CCC(=O)O)NC(=O)[C@H](CCC(=O)O)NC(=O)CCCCCCCCCCCCCCCCCCC(=O)O)C(=O)N[C@@H](CC(N)=O)C(=O)N[C@@H]([C@@H](C)O)C(=O)N[C@@H](C)C(=O)N[C@@H]([C@@H](C)O)C(=O)N1)[C@@H](C)O)C(=O)N[C@@H](CC(C)C)C(=O)N1CCC[C@H]1C(=O)N1CCC[C@H]1C(=O)N[C@H](C(=O)N[C@@H](CCC(=O)O)C(=O)N[C@H](C(=O)NCC(=O)N[C@@H](CO)C(=O)N[C@@H](CC(N)=O)C(=O)N[C@H](C(=O)N[C@@H](Cc1ccc(O)cc1)C(N)=O)[C@@H](C)O)C(C)C)[C@@H](C)O [Example 1, N-alpha-(19-carboxynonadecanoyl)-Glu-Glu-Arg-[Glu1,Glu14,His17,Glu31]-pramlintide] ({C20 diacid}-EERECNTATCATQRLAEFLHHSSNNFGPILPPTEVGSNTY-NH2; disulfide 5-10)",900
5,"CC[C@H](C)[C@H](NC(=O)[C@@H]1CCCN1C(=O)CNC(=O)[C@H](Cc1ccccc1)NC(=O)[C@H](CC(N)=O)NC(=O)[C@H](CC(N)=O)NC(=O)[C@H](CO)NC(=O)[C@H](CO)NC(=O)[C@H](Cc1c[nH]cn1)NC(=O)[C@H](Cc1c[nH]cn1)NC(=O)[C@H](CC(C)C)NC(=O)[C@H](Cc1ccccc1)NC(=O)[C@H](CC(N)=O)NC(=O)[C@H](C)NC(=O)[C@H](CC(C)C)NC(=O)[C@H](CCCNC(=N)N)NC(=O)[C@H](CCC(N)=O)NC(=O)[C@@H](NC(=O)[C@H](C)NC(=O)[C@@H]1CSSC[C@H](NC(=O)[C@H](CCCNC(=N)N)NC(=O)[C@H](CCCCN)NC(=O)[C@H](CCC(=O)O)NC(=O)CCCCCCCCCCCCCCCCCCC(=O)O)C(=O)N[C@@H](CC(N)=O)C(=O)N[C@@H]([C@@H](C)O)C(=O)N[C@@H](C)C(=O)N[C@@H]([C@@H](C)O)C(=O)N1)[C@@H](C)O)C(=O)N[C@@H](CC(C)C)C(=O)N1CCC[C@H]1C(=O)N1CCC[C@H]1C(=O)N[C@H](C(=O)N[C@@H](CC(N)=O)C(=O)N[C@H](C(=O)NCC(=O)N[C@@H](CO)C(=O)N[C@@H](CC(N)=O)C(=O)N[C@H](C(=O)N[C@@H](Cc1ccc(O)cc1)C(N)=O)[C@@H](C)O)C(C)C)[C@@H](C)O [Example 8, N-alpha-[19-carboxynonadecanoyl]-Glu-Lys-[Arg1,His17]-pramlintide] ({C20 diacid}-EKRCNTATCATQRLANFLHHSSNNFGPILPPTNVGSNTY-NH2; disulfide 4-9)",70
